“Also recorded” adds a separate entry of the source.
Experiments:
mP2Y14R = target: T1, mP2Y14R (Mus musculus, UniProt Q9ESG6)
T1 sequence (Q9ESG6 1-338): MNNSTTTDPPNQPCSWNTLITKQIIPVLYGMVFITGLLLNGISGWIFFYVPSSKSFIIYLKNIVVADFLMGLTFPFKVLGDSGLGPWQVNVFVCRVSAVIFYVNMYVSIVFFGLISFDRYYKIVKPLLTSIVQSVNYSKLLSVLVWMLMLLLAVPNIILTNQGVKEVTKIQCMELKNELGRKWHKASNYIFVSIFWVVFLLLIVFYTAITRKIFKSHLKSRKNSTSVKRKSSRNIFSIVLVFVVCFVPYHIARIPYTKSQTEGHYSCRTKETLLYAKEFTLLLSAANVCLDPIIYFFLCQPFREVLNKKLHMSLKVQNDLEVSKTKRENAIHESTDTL

α2A = target: T2, α2A (Homo sapiens, UniProt P08913); test: PDSP off-target binding
T2 sequence (P08913 1-465): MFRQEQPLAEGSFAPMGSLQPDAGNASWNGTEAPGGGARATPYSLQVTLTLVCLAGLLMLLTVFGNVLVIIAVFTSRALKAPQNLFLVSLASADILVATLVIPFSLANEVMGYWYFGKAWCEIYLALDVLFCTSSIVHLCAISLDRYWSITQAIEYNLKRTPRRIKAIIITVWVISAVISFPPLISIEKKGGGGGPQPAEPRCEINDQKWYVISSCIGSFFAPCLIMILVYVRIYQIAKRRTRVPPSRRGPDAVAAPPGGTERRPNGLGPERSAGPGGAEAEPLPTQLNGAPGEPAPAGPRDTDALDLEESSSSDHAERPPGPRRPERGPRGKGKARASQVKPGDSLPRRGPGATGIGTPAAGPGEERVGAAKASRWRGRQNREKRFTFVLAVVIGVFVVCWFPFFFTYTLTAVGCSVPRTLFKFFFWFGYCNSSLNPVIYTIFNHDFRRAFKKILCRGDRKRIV

[1] = test system: CCI-induced mechano-allodynia; test: Chronic constriction injury (CCI) of the sciatic nerve, mechano-allodynia by von Frey filaments; format: in vivo, mouse
Method: Chronic constriction injury (CCI) to the sciatic nerve was performed using the Bennett model. […] Then the animals were placed on a sterile surgical field and the skin was wiped with topical antiseptic, Dermachlor solution (0.2% chlorhexidine gluconate). […] A small incision was created on the lateral side of the left hind limb parallel to the femur. The sciatic nerve was exposed and ligated on two sites about 1 mm apart above the trifurcation using silk sutures 6.0. The incision was closed with clips and lidocaine cream was applied.
Mice were acclimated to the testing mesh-rack for 30 min before behavioral measurements. All behavioral testing was performed in the morning. The baseline measurements were determined on day 0 before CCI procedure. On day 7 post-CCI, baseline behavior responses were assessed, beginning prior to drug administration. Following drug injection, the behaviors were evaluated at multiple time points. Mechano-allodynia was quantified according to the hind paw withdrawal response to von Frey filaments stimulation by the Dixon up-and-down method. […] In presence of a positive withdrawal response a lighter filament was applied. If a negative response occurred, a stronger filament was used. At least four readings are obtained after the first positive response and the pattern of response was converted to a 50% paw withdrawal threshold (PWT), using the method described by Chaplan et al., J. Neurosci.
Data are expressed as mean±SD and analyzed by two-tailed, two-way repeated measures ANOVA with Dunnett's post hoc comparisons to day 7 behavior. The percentage of reversal of peak CCI-induced pain afforded by each drug was calculated for each animal using their baseline and day 7 post CCI behavioral measures. % Reversal=(PWT(g)t−PWT(g)day7)/PWT(g)day0−PWT(g)day7)×100, where PWT(g)=paw withdrawal threshold, t=time after drug. […] All statistical analyses were performed using GraphPad Prism 8 (Graph Pad Inc., San Diego, Calif.). Significance was accepted at p<0.05.

α2C = target: T3, α2C (Homo sapiens, UniProt P18825); test: PDSP off-target binding; settings: ± SEM
T3 sequence (P18825 1-462): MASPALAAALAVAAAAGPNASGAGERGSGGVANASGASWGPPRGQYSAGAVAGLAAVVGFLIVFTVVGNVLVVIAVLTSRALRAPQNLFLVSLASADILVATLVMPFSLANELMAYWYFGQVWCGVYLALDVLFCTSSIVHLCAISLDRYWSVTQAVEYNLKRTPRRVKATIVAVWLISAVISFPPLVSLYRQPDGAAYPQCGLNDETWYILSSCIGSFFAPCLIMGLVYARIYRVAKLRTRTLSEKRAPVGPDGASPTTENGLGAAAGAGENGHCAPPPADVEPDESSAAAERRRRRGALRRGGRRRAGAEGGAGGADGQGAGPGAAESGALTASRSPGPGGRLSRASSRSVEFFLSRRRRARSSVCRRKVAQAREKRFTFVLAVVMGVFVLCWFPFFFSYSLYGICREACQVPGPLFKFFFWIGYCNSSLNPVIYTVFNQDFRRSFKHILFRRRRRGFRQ

α2B = target: T4, α2B (Homo sapiens, UniProt P18089); test: PDSP off-target binding
T4 sequence (P18089 1-450): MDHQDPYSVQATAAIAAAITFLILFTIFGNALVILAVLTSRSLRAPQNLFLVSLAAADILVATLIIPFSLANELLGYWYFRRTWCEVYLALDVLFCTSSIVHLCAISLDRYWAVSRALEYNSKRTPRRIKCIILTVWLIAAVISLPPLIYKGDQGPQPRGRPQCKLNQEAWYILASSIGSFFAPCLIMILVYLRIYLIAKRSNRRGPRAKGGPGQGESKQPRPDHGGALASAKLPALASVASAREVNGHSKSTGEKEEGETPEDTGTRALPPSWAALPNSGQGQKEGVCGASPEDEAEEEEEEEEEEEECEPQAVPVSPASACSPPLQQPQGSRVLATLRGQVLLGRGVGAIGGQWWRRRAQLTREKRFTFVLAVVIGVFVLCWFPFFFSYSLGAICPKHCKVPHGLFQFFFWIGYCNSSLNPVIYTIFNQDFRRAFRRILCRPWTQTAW

hP2Y14R = target: T5, hP2Y14R (Homo sapiens, UniProt Q15391); test: Competitive fluorescent binding assay in whole CHO-hP2Y14R cells, tracer 20, flow cytometry; settings: read-out: Human P2Y14R binding affinity (IC50)
T5 construct: expressed in transfected cells; host or cells: CHO
T5 sequence (Q15391 1-338): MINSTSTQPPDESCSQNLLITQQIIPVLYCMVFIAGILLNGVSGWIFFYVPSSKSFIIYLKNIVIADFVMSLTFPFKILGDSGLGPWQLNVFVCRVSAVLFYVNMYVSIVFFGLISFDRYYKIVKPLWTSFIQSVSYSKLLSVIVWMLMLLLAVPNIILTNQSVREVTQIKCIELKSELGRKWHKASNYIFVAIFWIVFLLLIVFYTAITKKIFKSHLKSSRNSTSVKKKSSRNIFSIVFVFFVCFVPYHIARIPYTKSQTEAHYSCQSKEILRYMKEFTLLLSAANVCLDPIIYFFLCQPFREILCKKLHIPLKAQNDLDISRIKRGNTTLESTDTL

DOR = DOR (Homo sapiens, UniProt P41143); test: PDSP off-target binding
5HT1D = 5HT1D (Homo sapiens, UniProt P28221); test: PDSP off-target binding; settings: ± SEM
β3 = β3 (Homo sapiens, UniProt P13945); test: PDSP off-target binding; settings: ± SEM
TSPO = TSPO (Rattus norvegicus, UniProt P16257); test: PDSP off-target binding; settings: ± SEM
5HT1E = 5HT1E (Homo sapiens, UniProt P28566); test: PDSP off-target binding; settings: ± SEM
[2] = 10 μmol/kg, i.p., day 7 post-CCI, n = 3

Chain of DOR (P41143 whole entry): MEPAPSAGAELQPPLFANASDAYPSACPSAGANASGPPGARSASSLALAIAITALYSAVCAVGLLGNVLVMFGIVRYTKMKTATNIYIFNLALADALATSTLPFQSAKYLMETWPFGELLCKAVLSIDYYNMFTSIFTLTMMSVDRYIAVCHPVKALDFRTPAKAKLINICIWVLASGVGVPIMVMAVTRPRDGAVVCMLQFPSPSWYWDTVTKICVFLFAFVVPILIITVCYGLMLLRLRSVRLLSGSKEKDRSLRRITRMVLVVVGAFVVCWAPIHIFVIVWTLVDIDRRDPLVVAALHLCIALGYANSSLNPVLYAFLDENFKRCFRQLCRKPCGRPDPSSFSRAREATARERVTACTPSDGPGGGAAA
Chain of 5HT1E (P28566 whole entry, species assumed): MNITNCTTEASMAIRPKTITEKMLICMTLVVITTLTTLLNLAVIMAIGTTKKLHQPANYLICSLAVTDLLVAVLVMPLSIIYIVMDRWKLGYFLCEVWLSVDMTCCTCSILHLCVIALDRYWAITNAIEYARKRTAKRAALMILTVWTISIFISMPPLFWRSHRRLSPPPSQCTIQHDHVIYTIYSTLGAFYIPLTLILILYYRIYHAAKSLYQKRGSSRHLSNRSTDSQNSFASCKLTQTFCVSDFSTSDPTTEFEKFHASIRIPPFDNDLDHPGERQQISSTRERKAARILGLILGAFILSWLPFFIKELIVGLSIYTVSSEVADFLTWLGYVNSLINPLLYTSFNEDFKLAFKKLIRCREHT
Chain of 5HT1D (P28221 whole entry, species assumed): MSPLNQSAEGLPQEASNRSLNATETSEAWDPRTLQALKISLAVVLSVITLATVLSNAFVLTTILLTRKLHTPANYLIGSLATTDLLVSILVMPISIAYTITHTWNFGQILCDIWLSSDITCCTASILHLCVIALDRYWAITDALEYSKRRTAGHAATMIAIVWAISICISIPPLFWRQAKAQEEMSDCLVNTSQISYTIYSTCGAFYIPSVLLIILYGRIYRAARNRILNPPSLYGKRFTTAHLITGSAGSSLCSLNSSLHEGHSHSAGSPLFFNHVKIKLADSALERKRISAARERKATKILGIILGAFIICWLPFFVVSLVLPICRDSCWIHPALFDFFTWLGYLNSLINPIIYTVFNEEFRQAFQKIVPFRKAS
Chain of β3 (P13945 whole entry): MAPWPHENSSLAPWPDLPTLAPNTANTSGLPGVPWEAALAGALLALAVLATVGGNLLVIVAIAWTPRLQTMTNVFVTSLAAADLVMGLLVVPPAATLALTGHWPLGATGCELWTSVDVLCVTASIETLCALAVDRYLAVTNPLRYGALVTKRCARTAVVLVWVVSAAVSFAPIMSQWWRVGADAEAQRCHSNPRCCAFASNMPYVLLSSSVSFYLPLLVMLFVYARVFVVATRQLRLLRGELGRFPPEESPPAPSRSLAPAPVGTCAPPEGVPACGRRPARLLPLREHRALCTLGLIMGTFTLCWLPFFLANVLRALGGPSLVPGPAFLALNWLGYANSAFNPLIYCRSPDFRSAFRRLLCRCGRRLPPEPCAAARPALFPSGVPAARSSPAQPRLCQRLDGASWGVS
Chain of TSPO (P16257 whole entry): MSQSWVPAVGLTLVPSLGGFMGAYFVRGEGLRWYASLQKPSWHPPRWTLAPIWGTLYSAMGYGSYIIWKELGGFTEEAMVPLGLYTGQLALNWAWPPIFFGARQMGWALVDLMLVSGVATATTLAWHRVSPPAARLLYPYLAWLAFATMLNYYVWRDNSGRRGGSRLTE

Structure (SMILES) | mP2Y14R affinity compared to isomer 6 (mP2Y14R; 7 vs 6) | IC50 (mP2Y14R; read-out: Mouse P2Y14R binding affinity (IC50), mP2Y14R in HEK293 cells, tracer 20) | Ki (α2A) | In vivo efficacy compared with a comparator compound ([1]; 10 μmol/kg i.p., 6 vs 7, 4 vs 1) | Effect at 0.5 h (% ± SD), percent inhibition of mechano-allodynia [1, 2] | Effect at 1 h (% + SD), percent inhibition of mechano-allodynia [1, 2] | Effect at 2 h (% ± SD), percent inhibition of mechano-allodynia [1, 2] | Effect at 3 h (% ± SD), percent inhibition of mechano-allodynia [1, 2] | Effect at 5 h (% ± SD), percent inhibition of mechano-allodynia [1, 2] | Reversal of CCI-induced mechano-allodynia ([1]; 10 μmol/kg, i.p., ipsilateral hind paw, day 7 post-CCI) | Ki (α2C) | Ki (α2B) | IC50 (hP2Y14R) | Ki (DOR) | Ki (5HT1D) | Ki (β3) | Ki (TSPO) | Ki (5HT1E)
O=C(O)c1cc(-c2ccc(C3CCNCC3)cc2)cc(-c2cn(-c3ccc(C(F)(F)F)cc3)nn2)c1 [Compound 7, 4′-(Piperidin-4-yl)-5-(1-(4-(trifluormethyl)phenyl)-1H-1,2,3-triazol-4-yl)-[1,1′-biphenyl]-3-carboxylic acid] | nearly equipotent | 0.246 ± 0.063 µM | 0.959 µM | no statistical difference; also recorded: similar | 70.7 ± 16.5% | 86.8 ± 2.4% | 71.4 ± 10.2% | 55.1 ± 18.6% | 6.7 ± 5.9% | reversed the allodynia | 2.71 µM | 5.33 µM | 0.664 ± 0.175 µM | 3.79 µM | – | – | – | –
CC(=O)N1CCC(c2ccc(-c3cc(C(=O)O)cc4cc(-c5ccc(C(F)(F)F)cc5)ccc34)cc2)CC1 [Compound 4, 4-(4-(1-(Acetyl)piperidin-4-yl)phenyl)-7-(4-(trifluoromethyl)phenyl)-2-naphthoic acid] | – | – | – | – | – | – | – | – | – | – | – | – | – | – | 1.75 µM | 0.86 µM | 0.508 µM | 3.91 µM
